The values below come from patent US20020051799A1, “Glucosylated hydroxystilbene compounds for treating skin conditions” (priority 2000, published 2002).

The conditions of experiment [1]: glucosylated form compared with the non glucosylated form; cited from earlier work.
The test system of experiment [2] is tyrosinase. As to the kind of experiment: Spectrophotometric tyrosinase assay (255 nm). The class given is biochemical. How it is done:
A glucosylated resveratrol (4′,5-dihydroxystilbene-3-O-beta-D-glucoside) (APIN Chemicals N17555p, 29 D Milton Park, Abingdon, Oxon, United Kingdom) was incubated in the presence of an extract of stratum corneum or of a homogenate of hair follicles that had been removed by plucking. Under precise experimental conditions, the affinity of the resveratrol for tyrosinase was higher than for glucosylated resveratrol. This property was advantageously employed to measure the resveratrol liberated in the presence of tyrinosase, determined at 255 nm. This method was adapted from the method described by A. A. Calderon: “A Spectrophotometric Assay for Quantitative Analysis of the Oxidation of 4-hydroxystilbene by Peroxidase-H2O2 Systems: J. of Biochem. and Biophys. (1990) Methods 20: 171-180.
A 200 μl aliquot was removed and 10 μl of tyronisase was added.
Two independent measurements were carried out by determining the optical density at 255 nm over 10 minutes and calculating the slope of the graph (60 to 300 seconds).
Under the same conditions, a calibration curve was produced using resveratrol (1; 2.5; 5; 7.5 and 10 μl) in a volume adjusted to […].

As to `OC[C@H]1O[C@@H](Oc2cc(O)cc(/C=C/c3ccc(O)cc3)c2)[C@H](O)[C@@H](O)[C@@H]1O` [glucosylated resveratrol, 4′,5-dihydroxystilbene-3-O-beta-D-glucoside], the antioxidant activity entry in experiment [1] is recorded as “far inferior”.

With `Oc1ccc(C=Cc2cc(O)cc(O)c2)cc1` [resveratrol, 3,4′,5-trihydroxystilbene], in experiment [2] (compared with glucosylated resveratrol, under precise experimental conditions), the affinity for tyrosinase result is reported as “higher”. Further, the “concentrations at which resveratrol action was demonstrated” value in experiment [2] (in vitro tests) is given as “less than 10 μm”.
